Source: PubChem BioAssay AID1963428 (Molecular Pharmacology Branch, DTP, NCI, 2024)
pIC50: −log10 of the molar value. Where “and” joins values, the source holds several entries; their conditions need not be identical. Equal entries are not always repeated. One block for each molecule: values may come before it.

System: 171881-019-R-J1-PDC complex spheroid growth, % test/control
Test: Anticancer human tumor 171881-019-R-J1-PDC patient-derived invasive breast carcinoma cell line growth inhibition [Asc]
Details: for viability, T/C: stronger effect = lower value
In short: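 Tumor cells were grown as complex spheroids with human endothelial cells (HUVEC) and human mesenchymal stem cells as stroma. Agents were tested alone and in combination, in half-log steps down from the clinical Cmax, or from 10 microM where Cmax was unknown.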

[1] = curve of first compound, second compound 0.1 µM
[2] = curve of first compound, second compound 0.316 µM
[3] = curve of first compound, second compound 1 µM
[4] = curve of first compound, second compound 3.16 µM
[5] = curve of first compound, second compound 10 µM
[6] = second compound 0.1 µM, first compound 0.000316 µM
[7] = second compound 0.1 µM, first compound 0.001 µM
[8] = second compound 0.1 µM, first compound 0.00316 µM
[9] = second compound 0.1 µM, first compound 0.01 µM
[10] = second compound 0.1 µM, first compound 0.0316 µM
[11] = second compound 0.1 µM, first compound 0.1 µM
[12] = second compound 0.316 µM, first compound 0.000316 µM
[13] = second compound 0.316 µM, first compound 0.001 µM
[14] = second compound 0.316 µM, first compound 0.00316 µM
[15] = second compound 0.316 µM, first compound 0.01 µM
[16] = second compound 0.316 µM, first compound 0.0316 µM
[17] = second compound 0.316 µM, first compound 0.1 µM
[18] = second compound 1 µM, first compound 0.000316 µM
[19] = second compound 1 µM, first compound 0.001 µM
[20] = second compound 1 µM, first compound 0.00316 µM
[21] = second compound 1 µM, first compound 0.01 µM
[22] = second compound 1 µM, first compound 0.0316 µM
[23] = second compound 1 µM, first compound 0.1 µM
[24] = second compound 3.16 µM, first compound 0.000316 µM
[25] = second compound 3.16 µM, first compound 0.001 µM
[26] = second compound 3.16 µM, first compound 0.00316 µM
[27] = second compound 3.16 µM, first compound 0.01 µM
[28] = second compound 3.16 µM, first compound 0.0316 µM
[29] = second compound 3.16 µM, first compound 0.1 µM
[30] = second compound 10 µM, first compound 0.000316 µM
[31] = second compound 10 µM, first compound 0.001 µM
[32] = second compound 10 µM, first compound 0.00316 µM
[33] = second compound 10 µM, first compound 0.01 µM
[34] = second compound 10 µM, first compound 0.0316 µM
[35] = second compound 10 µM, first compound 0.1 µM
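Wherever viability, T/C is given: spheroids exposed to compounds for 7 days.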

- pIC50 [1]: < 7.00
- pIC50 [2]: < 7.00
- pIC50 [3]: < 7.00
- pIC50 [4]: < 7.00
- pIC50 [5]: < 7.00
Compound: NC1CCC(NC2CC2c2ccccc2)CC1 (stereo not given) + Cc1c(S(C)(=O)=O)c(-c2cc(F)cc(N3CCN(c4ccc(NS(=O)(=O)c5ccc(NC(CCN6CCC(C(=O)OCCCP(=O)(O)O)CC6)CSc6ccccc6)c(S(=O)(=O)C(F)(F)F)c5)cc4)CC3)c2)c(-c2ccc(Cl)cc2)n1C(C)C
- viability, T/C [6]: 85.6%
- viability, T/C [7]: 83%
- viability, T/C [8]: 85.6%
- viability, T/C [9]: 81%
- viability, T/C [10]: 88.7%
- viability, T/C [11]: 91.8%
- viability, T/C [12]: 99.9%
- viability, T/C [13]: 107%
- viability, T/C [14]: 90.5%
- viability, T/C [15]: 88.2%
- viability, T/C [16]: 96%
- viability, T/C [17]: 84.1%
- viability, T/C [18]: 97.6%
- viability, T/C [19]: 101%
- viability, T/C [20]: 91.5%
- viability, T/C [21]: 82.6%
- viability, T/C [22]: 84%
- viability, T/C [23]: 92.4%
- viability, T/C [24]: 134%
- viability, T/C [25]: 99.3%
- viability, T/C [26]: 93%
- viability, T/C [27]: 88.3%
- viability, T/C [28]: 88.1%
- viability, T/C [29]: 104%
- viability, T/C [30]: 154%
- viability, T/C [31]: 127%
- viability, T/C [32]: 111%
- viability, T/C [33]: 115%
- viability, T/C [34]: 121%
- viability, T/C [35]: 92.3%

- pIC50 (compound alone, run of 09/27/2022): < 5.52
- pIC50 (curve of compound): < 5.52
Compound: CCN1C(C(=O)NC23CCC(C(=O)O)(CC2)CC3)C(c2cccc(Cl)c2F)C2(C(=O)Nc3cc(Cl)ccc32)C12CCCCC2 (stereo not given)
- viability, T/C (compound 0.00949 µM): 76.5% and 112%

- pIC50 (curve of compound): < 6.00
Compound: CCN1CCN(Cc2ccc(Nc3ncc(F)c(-c4cc(F)c5nc(C)n(C(C)C)c5c4)n3)nc2)CC1
- viability, T/C (compound 0.00316 µM): 97.1% and 108% and 114%
- viability, T/C (compound 0.01 µM): 79.1% and 101% (2×)
- viability, T/C (compound 0.0316 µM): 97.8% and 111% and 105%
- viability, T/C (compound 0.1 µM): 109% and 104% and 128%
- viability, T/C (compound 0.316 µM): 110% and 120% and 131%
- viability, T/C (compound 1 µM): 130% and 141% and 128%

- pIC50 [1]: < 7.00
- pIC50 [2]: < 7.00
- pIC50 [3]: < 7.00
- pIC50 [4]: < 7.00
- pIC50 [5]: < 7.00
Compound: Cn1ncnc1[C@H]1c2n[nH]c(=O)c3cc(F)cc(c23)N[C@@H]1c1ccc(F)cc1 + Cc1c(S(C)(=O)=O)c(-c2cc(F)cc(N3CCN(c4ccc(NS(=O)(=O)c5ccc(NC(CCN6CCC(C(=O)OCCCP(=O)(O)O)CC6)CSc6ccccc6)c(S(=O)(=O)C(F)(F)F)c5)cc4)CC3)c2)c(-c2ccc(Cl)cc2)n1C(C)C
- viability, T/C [6]: 86.8%
- viability, T/C [7]: 108%
- viability, T/C [8]: 103%
- viability, T/C [9]: 115%
- viability, T/C [10]: 108%
- viability, T/C [11]: 100%
- viability, T/C [12]: 111%
- viability, T/C [13]: 130%
- viability, T/C [14]: 107%
- viability, T/C [15]: 120%
- viability, T/C [16]: 129%
- viability, T/C [17]: 129%
- viability, T/C [18]: 136%
- viability, T/C [19]: 145%
- viability, T/C [20]: 123%
- viability, T/C [21]: 159%
- viability, T/C [22]: 143%
- viability, T/C [23]: 192%
- viability, T/C [24]: 168%
- viability, T/C [25]: 155%
- viability, T/C [26]: 186%
- viability, T/C [27]: 178%
- viability, T/C [28]: 192%
- viability, T/C [29]: 173%
- viability, T/C [30]: 210%
- viability, T/C [31]: 203%
- viability, T/C [32]: 214%
- viability, T/C [33]: 208%
- viability, T/C [34]: 192%
- viability, T/C [35]: 181%

- pIC50 (curve of first compound, second compound 0.03 µM): < 5.00
- pIC50 (curve of first compound, second compound 0.0949 µM): < 5.00
- pIC50 (curve of first compound, second compound 0.3 µM): < 5.00
- pIC50 (curve of first compound, second compound 0.949 µM): < 5.00
- pIC50 (curve of first compound, second compound 3 µM): < 5.00
Compound: C#Cc1c(F)ccc2cc(O)cc(-c3ncc4c(N5CC6CCC(C5)N6)nc(OCC56CCCN5CC(F)C6)nc4c3F)c12 (stereo not given) + CCN1C(C(=O)NC23CCC(C(=O)O)(CC2)CC3)C(c2cccc(Cl)c2F)C2(C(=O)Nc3cc(Cl)ccc32)C12CCCCC2
- viability, T/C (second compound 0.03 µM, first compound 0.0316 µM): 120%
- viability, T/C (second compound 0.03 µM, first compound 0.1 µM): 116%
- viability, T/C (second compound 0.03 µM, first compound 0.316 µM): 136%
- viability, T/C (second compound 0.03 µM, first compound 1 µM): 192%
- viability, T/C (second compound 0.03 µM, first compound 3.16 µM): 204%
- viability, T/C (second compound 0.03 µM, first compound 10 µM): 170%
- viability, T/C (second compound 0.0949 µM, first compound 0.0316 µM): 117%
- viability, T/C (second compound 0.0949 µM, first compound 0.1 µM): 117%
- viability, T/C (second compound 0.0949 µM, first compound 0.316 µM): 158%
- viability, T/C (second compound 0.0949 µM, first compound 1 µM): 208%
- viability, T/C (second compound 0.0949 µM, first compound 3.16 µM): 241%
- viability, T/C (second compound 0.0949 µM, first compound 10 µM): 211%
- viability, T/C (second compound 0.3 µM, first compound 0.0316 µM): 120%
- viability, T/C (second compound 0.3 µM, first compound 0.1 µM): 127%
- viability, T/C (second compound 0.3 µM, first compound 0.316 µM): 127%
- viability, T/C (second compound 0.3 µM, first compound 1 µM): 204%
- viability, T/C (second compound 0.3 µM, first compound 3.16 µM): 213%
- viability, T/C (second compound 0.3 µM, first compound 10 µM): 188%
- viability, T/C (second compound 0.949 µM, first compound 0.0316 µM): 116%
- viability, T/C (second compound 0.949 µM, first compound 0.1 µM): 123%
- viability, T/C (second compound 0.949 µM, first compound 0.316 µM): 146%
- viability, T/C (second compound 0.949 µM, first compound 1 µM): 229%
- viability, T/C (second compound 0.949 µM, first compound 3.16 µM): 210%
- viability, T/C (second compound 0.949 µM, first compound 10 µM): 174%
- viability, T/C (second compound 3 µM, first compound 0.0316 µM): 125%
- viability, T/C (second compound 3 µM, first compound 0.1 µM): 156%
- viability, T/C (second compound 3 µM, first compound 0.316 µM): 216%
- viability, T/C (second compound 3 µM, first compound 1 µM): 218%
- viability, T/C (second compound 3 µM, first compound 3.16 µM): 172%
- viability, T/C (second compound 3 µM, first compound 10 µM): 154%
